{
  "source": "patent US20160120858A1",
  "about": "(ACADEMIA SINICA, priority 2014, published 2016)",
  "key": {"NMDAR": {"tested_on": "NMDAR", "test": "Simultaneous NMDA- and AMPA-eEPSCs at −40 mV, patch-clamp, hippocampal slices", "assay_type": "cell-based, mouse", "conditions": "for NMDA-eEPSCs (NMDAR function) at −40 mV: CQ 4 uM, 20 minutes, WT and Shank2^−/− SC-CA1 synapses", "experimental": "For electrophysiological experiments, sagittal hippocampal slices (400 uM thick for extracellular, 300 uM thick for intracellular recordings) of Shank2^−/− mice (or ZnT3^−/− mice) and their wild-type littermates were prepared using a vibratome (Leica VT1200) in ice-cold dissection buffer containing (in mM) 212 sucrose, 25 NaHCO3, 5 KCl, 1.25 NaH2PO4, 0.5 CaCl2, 3.5 MgSO4, 10 D-glucose, 1.25 L-ascorbic acid, and 2 Na-pyruvate bubbled with 95% 02/5% CO2. CA3 was removed to prevent epileptiform activity. Slices were restored for 1 hour in 32° C. in a normal artificial CSF (ACSF) (In units of mM: 124 NaCl, 2.5 kCl, 1 NaH2PO4, 25 NaHCO3, 10 glucose, 2 CaC12, 2 Mg504 oxidized by 95% 02/5% CO2) For the recording, a single slice was moved to and maintained in submerged-type chamber at 28° C., continuously perfused with ACSF (2 mL/minute) saturated with 95% 02/5% CO2. Stimulation and recording pipettes were pulled from borosilicate glass capillaries (Harvard Apparatus) using a micropipette electrode puller (Narishege).\nWhole-cell patch-clamp recordings of hippocampal CA1 pyramidal neurons were also made using a MultiClamp 700B amplifier (Molecular Devices) and Digidata 1440A (Molecular Devices). During whole-cell patch-clamp recordings, series resistance was monitored each sweep by measuring the peak amplitude of the capacitance currents in response to short hyperpolarizing step pulse (5 mV, 40 ms); only cells with a change in <25% were included in the analysis. For NMDA (N-Methyl-D-aspartate)/AMPA (alpha-amino-3-hydroxy-5-methylisoxazole-4-propionic acid) ratio experiments, mouse hippocampal slices at the age of postnatal day 17 to 25 were used. The recording pipettes (2.5 to 3.5 MΩ) were filled with an internal solution containing the following (in mM): 100 CsMeSO4, 10 TEA-Cl, 8 NaCl, 10 HEPES, 5 QX-314-C1, 2 Mg-ATP, 0.3 Na-GTP, 10 EGTA, with pH 7.25, 295 mOsm). CA1 pyramidal neurons were voltage-clamped at −70 mV, and EPSPs were evoked at every 15 sec. AMPAR-mediatedEPSCs were recorded at −70 mV, and 30 consecutive responses were recorded after stable baseline. After recording AMPAR-mediated EPSPs, holding potential was changed to +40 mV to record NMDA receptor-mediated EPSPs. NMDA component was measured at 60 ms after the stimulation. The NMDA/AMPA ratio was determined by dividing the mean value of 30 NMDA components of EPSPs by the mean value of 30 AMPAR-mediated EPSC peak amplitudes. […] For measuring AMPAR-mediated and NMDAR-mediated EPSCs together upon CQ treatment, pyramidal neurons were voltage-clamped at −40 mV, and EPSCs were evoked at every 15 sec. AMPAR-mediated EPSC was determined as a peak amplitude of EPSC, and NMDAR-mediated EPSC as a component at 60 ms after stimulation. NMDA/AMPA ratio at −40 mV was calculated by using both values, and monitored during the experimental process. […] Picrotoxin (100 uM) was always added to ACSF to block GABAA receptor-mediated currents."}, "Tbr1^+/− mice": {"tested_on": "Tbr1^+/− mice", "test": "Three-chamber social interaction assay, Tbr1 mice", "assay_type": "in vivo, mouse", "conditions": "30 mg/kg, 3 hours before test", "from_the_text": "All mice were backcrossed into a C57BL/6 background, and housed and bred in a mouse vivarium at the Korea Advanced Institute of Science and Technology (KAIST, Shank2^−/−mice) and at Academia Sinica (Tbr1^+/− mice). Pups were kept with the dam until weaning at postnatal day 21. After weaning, animals were group housed in mixed-genotype groups of 3 to 5 mice per cages, and randomly subjected to electrophysiological and behavioral experiments. Animals at 3 to 5 weeks of age were used for electrophysiological experiments; male animals at 2 to 4 months of age were used for behavioral assays. For TFL-Zn staining, male animals at 8 weeks (for Shank2^−/−mice) were used. Wild-type littermates were used as controls.\nThe injection was performed 2 hours before (Shank2^−/− mice and wild-type littermates), or 3 hours before (Tbr1^+/− mice and wild-type littermates) behavioral assays at the discretion of the facility.\nTesting was conducted in dedicated behavioral test rooms during the light phase (three-chamber test) and the dark phase (repetitive behaviors and open field test).\nIn short, the assay consisted of three phases of 10 minutes duration: habituation, social interaction (Stranger1 vs. Object), and social novelty recognition (Stranger 1 vs. Stranger 2). Exploration was defined as each instance in which wild-type or mutant mouse tries to sniff Object/Stranger, or orients its nose towards and come close to object/stranger. Individual movement tracks were analyzed by Ethovision 10.0 (Noldus) and modified by custom-designed software MatLab (Mathworks) to generate heat maps. Time spent in exploration was analyzed by the researcher who was blinded to the subject genotype (in Shank2 mice), or by using the Smart Video Tracking System (Panlab, in Tbr1 mice). In addition to exploration time, the preference index, which represents a numerical difference between time spent exploring the targets (Stranger1 vs. Object, or Stranger 2 vs. Stranger 1) divided by total time spent exploring both targets, as described previously."}},
  "note": "“Also recorded” adds a separate entry of the source.",
  "data": [
    {"smiles": "Oc1c(I)cc(Cl)c2cccnc12", "note": "[clioquinol, 5-Chloro-7-Iodo-8-Hydroxyquinoline]", "values": [
      {"measurement": "NMDA-eEPSCs (NMDAR function) at −40 mV", "setting": "NMDAR", "result": "increased NMDA-eEPSCs"},
      {"measurement": "NMDA-eEPSCs (NMDAR function) at −40 mV", "setting": "NMDAR; listed as CQ", "result": "enhances NMDAR function"},
      {"measurement": "AMPA-eEPSCs at −40 mV", "setting": "NMDAR; clioquinol treatment, WT and Shank2^−/−", "result": "not affected"},
      {"measurement": "NMDAR function (NMDA-eEPSCs at −40 mV) in the presence of sSrc (40-58)", "setting": "NMDAR; peptide 0.03 mg/mL in internal solution", "result": "effectively enhances NMDAR function"},
      {"measurement": "NMDAR function (NMDA-eEPSCs at −40 mV) in the presence of Src (40-58)", "setting": "NMDAR; peptide 0.03 mg/mL in internal solution, Shank2^−/− SC-CA1 synapses", "result": "fails to enhance NMDAR function"},
      {"measurement": "Social novelty recognition", "setting": "Tbr1^+/− mice; Tbr1^+/− (HT) mice", "result": "had no effect on social novelty recognition"},
      {"measurement": "Social novelty recognition", "setting": "Tbr1^+/− mice; Tbr1^+/− (HT) mice, listed as CQ", "result": "fails to enhance social novelty recognition; also recorded: has no effect on social novelty recognition"},
      {"measurement": "Social novelty recognition", "setting": "Tbr1^+/− mice; wild-type mice", "result": "had no effect on social novelty recognition"},
      {"measurement": "Social novelty recognition", "setting": "Tbr1^+/− mice; wild-type mice, listed as CQ", "result": "has no effect"}
    ]}
  ]
}
